{"source": "patent US4670433A", "about": "“Oxadiazolyl imidazobenzodiazepine derivatives pharmaceutical compositions thereof, and method of treating therewith” (A/S Ferrosan, priority 1985, dated 1987)", "key": {"benzodiazepine receptors [1]": {"molecular_target": "benzodiazepine receptors", "experiment": "displacement of 3H-Ro 15-1788 from benzodiazepine receptors in vitro (rat cerebral cortical membrane homogenate)", "settings": "50% displacement of specific binding of 3H-Ro 15-1788, 30° C.", "method": "(§1) The pharmaceutical potency of the compounds of the present invention is evidenced by determining their capability for displacing radioactively-labelled flunitrazepam and the imidazobenzodiazepine ^3 H-Ro 15-1788 from such benzodiazepine receptors.\n(§2) The displacement activity of the compounds of the invention has been determined by determining their IC50 and ED50 values. The IC50 value represents the concentration (nM, 30° C.) which causes a displacement of 50% of the specific binding of ^3 H-Ro 15-1788 in samples comprising a total volume of 1 ml.\nThe displacement test is performed as follows:\n750 μl of rat cerebral cortical membrane homogenate was incubated with 100 μl of 5 nM ^3 H-Ro 15-1788 in water at 30° C. Then 100 μl of a solution of the test compound and 50 μl of Krebs buffer was added. After incubation the binding reaction was terminated by filtration through Whatman GF/B glass fibre filters followed by 2×5 ml wash with ice-cold buffer and the radioactivity was measured by scintillation counting. The IC50 was determined by including at least four concentrations of the test compound and log/probit analysis of the resulting data."}, "benzodiazepine receptors [2]": {"tested_on": "benzodiazepine receptors", "experiment": "in vivo displacement of 3H-flunitrazepam from benzodiazepine receptors in living mouse brain", "settings": "dose reducing specific 3H-flunitrazepam binding to 50% of control; mice, usually subcutaneously, 15 min before 3H-flunitrazepam i.v., killed after a further 20 min, forebrain membranes", "method": "as §1, §2\nThe ED50 value represents the dose (mg/kg) of a test substance which causes the specific binding of flunitrazepam to benzodiazepine receptors in a living brain to be reduced to 50% of the control value.\nSuch an in vivo test is carried out as follows:\nGroups of mice are injected with the test substance at different doses and usually subcutaneously. Fifteen minutes later ^3 H-flunitrazepam is given intravenously to the mice and, after a further twenty minutes, the mice are killed. Their forebrain membranes are removed and the radioactivity of these forebrain membranes is measured by scintillation counting. The ED50 value is determined from dose-response curves."}}}
{"smiles": "CCc1nc(-c2ncn3c2CN(C)C(=O)c2c-3cccc2C(F)(F)F)no1", "values": [{"measurement": "IC50", "setting": "benzodiazepine receptors [1]", "result": 5.6, "unit": "nM"}, {"measurement": "in vivo ED50", "setting": "benzodiazepine receptors [2]", "result": 0.5, "unit": "mg/kg"}]}
{"smiles": "COc1ccc2c(c1)C(=O)N(C)Cc1c(-c3nc(C)no3)ncn1-2", "values": [{"measurement": "in vivo ED50", "setting": "benzodiazepine receptors [2]", "result": 4.0, "unit": "mg/kg"}]}
{"smiles": "CCc1noc(-c2ncn3c2CN(C)C(=O)c2c(C)cccc2-3)n1", "values": [{"measurement": "IC50", "setting": "benzodiazepine receptors [1]", "result": 44.8, "unit": "nM"}, {"measurement": "in vivo ED50", "setting": "benzodiazepine receptors [2]", "result": 2.2, "unit": "mg/kg"}]}
{"smiles": "CCc1noc(-c2ncn3c2C2CCN2C(=O)c2c(C)cccc2-3)n1", "note": "(stereo not drawn)", "values": [{"measurement": "IC50", "setting": "benzodiazepine receptors [1]", "result": 30, "unit": "nM"}, {"measurement": "in vivo ED50", "setting": "benzodiazepine receptors [2]", "result": 0.4, "unit": "mg/kg"}]}
{"smiles": "Cc1cccc2c1C(=O)N1CCC1c1c(-c3nc(C4CC4)no3)ncn1-2", "note": "(stereo not drawn)", "values": [{"measurement": "IC50", "setting": "benzodiazepine receptors [1]", "result": 23, "unit": "nM"}, {"measurement": "in vivo ED50", "setting": "benzodiazepine receptors [2]", "result": 0.2, "unit": "mg/kg"}]}
